# According to paper PMC10303271, “Synthesis and Receptor Binding Studies of α5 GABAAR Selective Novel Imidazodiazepines Targeted for Psychiatric and Cognitive Disorders” (Molecules, 2023):
# Where two headings read alike, the source gives them in different places.
# What was measured:
# 5-HT1B = biological target: T1, 5-HT1B (Homo sapiens, UniProt P28222); assay: PDSP primary binding 5-HT1B; conditions: 1.5 h; primary binding, 10,000 nM; last figure of the line = mean of the 4 before it; read-out: 5-HT1B, PDSP raw data, mean
# T1 construct: purchased NIMH Psychoactive Drug Screening Program (PDSP)
# Procedure: (§1) To determine if any off-target receptor-binding effects are present, all the novel ligands were sent to the National Institute of Mental Health (NIMH), Psychoactive Drug Screening Program (PDSP). The ligands were screened over a panel of 47 receptors, ion channels, and transporters to determine any other possible interactions with […]. The hERG-binding was also determined. […] No binding of the test compounds to calcium channels was observed. […] It is necessary to screen the compounds for hERG-binding during the early process of drug discovery. The unintentional binding of many drugs to hERG can cause blockade of hERG K+ channels in the heart, which can cause many side effects including cardiac arrhythmias and sudden death. […] All of the α5 imidazodiazepines were tested for hERG-binding.
# (§2) The NIMH PDSP assay protocol book [https://kidbdev.med.unc.edu/databases/PDSP%20Protocols%20II%202013-03-28.pdf accessed on 23 April 2023]. describes the protocols for primary and secondary radio-ligand binding assays. These assays were carried out in a final volume of 125 µL per well in the appropriate binding buffer.
# (§3) The binding of a ligand to a receptor, ion channel, or transporter was determined in the […] of 10 µM of the appropriate reference compound. […] Plates were incubated in the dark for 90 min at rt, and the reactions were stopped by vacuum filtration onto 0.3% polyethyleneimine (PEI) soaked 96-well filter mats using a 96-well Filtermateharvester. This was followed by three washes with cold PBS buffer. Radioactivity was then counted on a Microbeta counter. Nonlinear regression was used to analyze the data with N = 6 replicates.
# AMPA = assay: PDSP primary binding AMPA; conditions: primary binding, 10,000 nM; last figure of the line = mean of the 4 before it
# Procedure: as §1, §2, §3
# NTS1 = biological target: T2, NTS1 (Homo sapiens, UniProt P30989); assay: PDSP primary binding NTS1; conditions: primary binding, 10,000 nM; last figure of the line = mean of the 4 before it; read-out: NTS1, PDSP raw data, mean
# T2 construct: purchased NIMH Psychoactive Drug Screening Program (PDSP)
# Procedure: as §1, §2, §3
# [1] = biological target: kappa opioid receptors (KOR) (Homo sapiens, UniProt P41145); assay: PDSP radioligand binding at KOR; conditions: for inhibition at 10 µM: 1.5 h
# Text: Opioid receptors are a family of inhibitory G-coupled protein receptors where opioids act as the ligand. The kappa opioid receptors (KOR), µ and δ opioid receptors (MOR and DOR), and nociception opioid receptor (NOP) fall under the family of opioids receptors. It has been reported that oxadiazole imidazodiazepines can mediate analgesic and anti-inflammatory properties mediated also by the κ opioid receptor (KOR). The binding at KOR is usually silent. The affinities of the test compounds for KOR, DOR, and MOR were determined using radioligand binding assays at a screening concentration of 10,000 nM in collaboration with the National Institute of Mental Health’s Psychoactive Drug Screening Program (PDSP), as mentioned before. Concentration-dependent experiments were conducted to determine Ki values for the compounds that exceeded more than 50% radioligand displacement in primary binding assays.
# as §2, §3
# H3 = biological target: T3, H3 (Homo sapiens, UniProt Q9Y5N1); assay: PDSP primary binding H3; conditions: primary binding, 10,000 nM; last figure of the line = mean of the 4 before it; read-out: H3, PDSP raw data, mean
# T3 construct: purchased NIMH Psychoactive Drug Screening Program (PDSP)
# Procedure: as §1, §2, §3
# H1 = biological target: T4, H1 (Homo sapiens, UniProt P35367); assay: PDSP primary binding H1; conditions: primary binding, 10,000 nM; last figure of the line = mean of the 4 before it; read-out: H1, PDSP raw data, mean
# T4 construct: purchased NIMH Psychoactive Drug Screening Program (PDSP)
# Procedure: as §1, §2, §3
# NET = biological target: T5, NET (Homo sapiens, UniProt P23975); assay: PDSP primary binding NET; conditions: primary binding, 10,000 nM; last figure of the line = mean of the 4 before it; read-out: NET, PDSP raw data, mean
# T5 construct: purchased NIMH Psychoactive Drug Screening Program (PDSP)
# Procedure: as §1, §2, §3
# D4 = biological target: T6, D4 (Homo sapiens, UniProt P21917); assay: PDSP primary binding D4; conditions: 1.5 h; primary binding, 10,000 nM; last figure of the line = mean of the 4 before it; read-out: D4, PDSP raw data, mean
# T6 construct: purchased NIMH Psychoactive Drug Screening Program (PDSP)
# T6 sequence (P21917 1-419): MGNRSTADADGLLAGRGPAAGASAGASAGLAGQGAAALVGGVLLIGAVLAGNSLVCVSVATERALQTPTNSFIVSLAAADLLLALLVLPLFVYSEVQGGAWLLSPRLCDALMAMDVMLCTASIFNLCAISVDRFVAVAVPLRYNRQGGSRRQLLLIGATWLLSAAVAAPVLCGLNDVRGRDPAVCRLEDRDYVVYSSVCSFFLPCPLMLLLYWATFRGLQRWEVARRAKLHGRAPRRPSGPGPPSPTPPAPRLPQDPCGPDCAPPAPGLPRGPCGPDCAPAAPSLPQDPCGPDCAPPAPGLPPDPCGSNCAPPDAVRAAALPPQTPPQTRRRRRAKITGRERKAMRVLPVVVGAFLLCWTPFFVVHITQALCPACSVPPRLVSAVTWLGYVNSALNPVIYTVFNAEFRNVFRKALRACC
# Procedure: as §1, §2, §3
# [2] = biological target: peripheral benzodiazepine receptors (PBR) (Rattus norvegicus, UniProt P16257); assay: PDSP radioligand binding at PBR
# Text: The compounds were also screened at PDSP to determine any binding with peripheral benzodiazepine receptors (PBR). A number of biological processes are associated with PBR. The most prevalent are transportation of anions for mitochondrial transmembrane potential, biosynthesis of heme, regulation of neurological damage, proliferation, cell death (apoptosis), as well as regulation of steroidogenesis. The test compounds were screened in the primary binding assay to determine the % inhibition at PBR. […] These compounds were then subjected to a secondary screening to determine the Ki (nM) value for PBR receptors.
# as §2, §3
# NR2B = assay: PDSP primary binding NR2B; conditions: primary binding, 10,000 nM; last figure of the line = mean of the 4 before it
# Procedure: as §1, §2, §3
# Alpha3Beta4 = biological target: T7, Alpha3Beta4 (Rattus norvegicus, UniProt P04757+P12392); assay: PDSP primary binding Alpha3Beta4; conditions: primary binding, 10,000 nM; last figure of the line = mean of the 4 before it; read-out: Alpha3Beta4, PDSP raw data, mean
# T7 construct: purchased NIMH Psychoactive Drug Screening Program (PDSP)
# Procedure: as §1, §2, §3
# Sigma 2 = assay: PDSP primary binding Sigma 2; conditions: primary binding, 10,000 nM; last figure of the line = mean of the 4 before it
# Procedure: as §1, §2, §3
# V1A = biological target: T8, V1A (Homo sapiens, UniProt P37288); assay: PDSP primary binding V1A; conditions: primary binding, 10,000 nM; last figure of the line = mean of the 4 before it; read-out: V1A, PDSP raw data, mean
# T8 construct: purchased NIMH Psychoactive Drug Screening Program (PDSP)
# Procedure: as §1, §2, §3
# [3] = at 10,000 nM, N = 5, [3H]-U69593 0.83 nM, read-out: Primary Binding %KOR
# [4] = primary binding, 10,000 nM, last figure of the line = mean of the 4 before it, read-out: KOR, PDSP raw data, mean
# [5] = 1.5 h, primary binding, 10,000 nM, last figure of the line = mean of the 4 before it, some tables list PBR twice, read-out: PBR, PDSP raw data, mean
# [6] = at 10,000 nM, N = 5, read-out: Binding Affinity at PBR % Inhibition (Primary)
# T2 sequence (P30989 whole entry): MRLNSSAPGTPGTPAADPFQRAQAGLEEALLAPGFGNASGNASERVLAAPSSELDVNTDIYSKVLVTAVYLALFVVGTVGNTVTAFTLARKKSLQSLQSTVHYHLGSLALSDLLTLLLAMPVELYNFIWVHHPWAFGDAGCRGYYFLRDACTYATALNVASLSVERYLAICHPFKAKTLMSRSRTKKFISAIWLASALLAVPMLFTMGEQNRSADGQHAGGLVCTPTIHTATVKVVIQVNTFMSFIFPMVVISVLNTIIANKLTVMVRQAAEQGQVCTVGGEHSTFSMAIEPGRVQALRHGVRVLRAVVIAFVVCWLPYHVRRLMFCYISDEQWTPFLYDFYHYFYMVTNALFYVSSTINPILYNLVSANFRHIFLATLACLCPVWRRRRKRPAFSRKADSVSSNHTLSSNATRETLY
# T8 sequence (P37288 whole entry): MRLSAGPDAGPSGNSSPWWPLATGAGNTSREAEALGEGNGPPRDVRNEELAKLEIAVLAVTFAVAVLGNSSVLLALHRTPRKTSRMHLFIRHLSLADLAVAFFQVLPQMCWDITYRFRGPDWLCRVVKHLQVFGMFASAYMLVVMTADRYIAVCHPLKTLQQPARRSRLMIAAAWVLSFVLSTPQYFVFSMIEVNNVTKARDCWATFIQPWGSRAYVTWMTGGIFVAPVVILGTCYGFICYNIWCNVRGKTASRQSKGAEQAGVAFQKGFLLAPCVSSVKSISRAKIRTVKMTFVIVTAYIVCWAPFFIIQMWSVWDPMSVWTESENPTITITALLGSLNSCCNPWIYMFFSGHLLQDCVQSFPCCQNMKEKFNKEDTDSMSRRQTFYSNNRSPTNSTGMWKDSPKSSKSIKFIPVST
# T5 sequence (P23975 whole entry): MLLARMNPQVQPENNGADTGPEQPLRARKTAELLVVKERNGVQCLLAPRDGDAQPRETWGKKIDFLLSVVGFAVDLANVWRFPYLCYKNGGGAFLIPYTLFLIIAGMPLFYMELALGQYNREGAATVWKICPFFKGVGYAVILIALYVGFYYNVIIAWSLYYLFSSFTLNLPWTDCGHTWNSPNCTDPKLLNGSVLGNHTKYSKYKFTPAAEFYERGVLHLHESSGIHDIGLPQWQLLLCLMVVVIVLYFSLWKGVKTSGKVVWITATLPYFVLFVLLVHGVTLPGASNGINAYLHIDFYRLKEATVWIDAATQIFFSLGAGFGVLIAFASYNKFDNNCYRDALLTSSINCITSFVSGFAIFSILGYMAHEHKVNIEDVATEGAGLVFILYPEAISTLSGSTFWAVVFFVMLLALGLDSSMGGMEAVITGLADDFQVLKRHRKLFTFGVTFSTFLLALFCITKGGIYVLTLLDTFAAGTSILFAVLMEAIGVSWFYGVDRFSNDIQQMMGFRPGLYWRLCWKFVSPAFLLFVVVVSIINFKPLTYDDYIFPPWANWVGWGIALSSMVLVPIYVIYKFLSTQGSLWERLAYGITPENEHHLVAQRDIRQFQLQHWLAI
# Sequence of peripheral benzodiazepine receptors (PBR) (P16257 whole entry): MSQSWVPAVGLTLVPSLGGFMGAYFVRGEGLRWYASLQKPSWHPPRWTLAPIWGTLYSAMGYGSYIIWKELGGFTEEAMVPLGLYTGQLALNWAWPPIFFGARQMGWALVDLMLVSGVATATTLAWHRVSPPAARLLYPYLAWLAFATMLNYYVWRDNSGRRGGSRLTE
# T1 sequence (P28222 whole entry): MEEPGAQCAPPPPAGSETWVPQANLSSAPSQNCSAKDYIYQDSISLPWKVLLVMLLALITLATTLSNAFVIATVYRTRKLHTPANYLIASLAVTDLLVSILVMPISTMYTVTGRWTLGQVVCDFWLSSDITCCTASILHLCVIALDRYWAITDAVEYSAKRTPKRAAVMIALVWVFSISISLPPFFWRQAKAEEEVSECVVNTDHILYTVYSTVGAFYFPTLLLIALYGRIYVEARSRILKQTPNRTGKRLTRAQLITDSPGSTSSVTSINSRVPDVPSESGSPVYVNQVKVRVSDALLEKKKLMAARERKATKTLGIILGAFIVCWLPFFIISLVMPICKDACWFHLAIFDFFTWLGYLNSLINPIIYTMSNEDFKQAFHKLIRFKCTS
# T4 sequence (P35367 whole entry): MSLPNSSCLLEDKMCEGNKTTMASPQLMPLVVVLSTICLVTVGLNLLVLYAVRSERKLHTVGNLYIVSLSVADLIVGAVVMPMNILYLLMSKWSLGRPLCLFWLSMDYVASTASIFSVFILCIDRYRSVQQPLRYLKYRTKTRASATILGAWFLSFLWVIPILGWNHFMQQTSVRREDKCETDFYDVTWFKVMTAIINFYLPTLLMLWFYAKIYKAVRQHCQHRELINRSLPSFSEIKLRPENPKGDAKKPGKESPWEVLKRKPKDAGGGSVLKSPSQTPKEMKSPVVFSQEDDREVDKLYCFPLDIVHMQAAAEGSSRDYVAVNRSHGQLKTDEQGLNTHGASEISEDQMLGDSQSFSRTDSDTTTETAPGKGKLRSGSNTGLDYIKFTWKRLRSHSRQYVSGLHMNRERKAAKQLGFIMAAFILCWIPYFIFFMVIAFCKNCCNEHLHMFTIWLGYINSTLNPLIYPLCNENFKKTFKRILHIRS
# T3 sequence (Q9Y5N1 whole entry): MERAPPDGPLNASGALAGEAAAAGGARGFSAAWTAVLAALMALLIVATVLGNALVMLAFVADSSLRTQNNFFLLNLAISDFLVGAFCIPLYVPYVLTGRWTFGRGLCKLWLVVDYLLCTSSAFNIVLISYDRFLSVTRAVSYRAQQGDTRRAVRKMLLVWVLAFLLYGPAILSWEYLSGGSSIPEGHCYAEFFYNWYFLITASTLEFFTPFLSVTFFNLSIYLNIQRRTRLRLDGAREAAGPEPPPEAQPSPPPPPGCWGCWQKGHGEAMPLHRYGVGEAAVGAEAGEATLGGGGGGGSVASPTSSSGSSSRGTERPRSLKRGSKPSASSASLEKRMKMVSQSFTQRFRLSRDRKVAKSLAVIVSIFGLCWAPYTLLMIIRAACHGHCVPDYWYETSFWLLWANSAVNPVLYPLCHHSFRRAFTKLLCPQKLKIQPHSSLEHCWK
# Sequence of kappa opioid receptors (KOR) (P41145 whole entry): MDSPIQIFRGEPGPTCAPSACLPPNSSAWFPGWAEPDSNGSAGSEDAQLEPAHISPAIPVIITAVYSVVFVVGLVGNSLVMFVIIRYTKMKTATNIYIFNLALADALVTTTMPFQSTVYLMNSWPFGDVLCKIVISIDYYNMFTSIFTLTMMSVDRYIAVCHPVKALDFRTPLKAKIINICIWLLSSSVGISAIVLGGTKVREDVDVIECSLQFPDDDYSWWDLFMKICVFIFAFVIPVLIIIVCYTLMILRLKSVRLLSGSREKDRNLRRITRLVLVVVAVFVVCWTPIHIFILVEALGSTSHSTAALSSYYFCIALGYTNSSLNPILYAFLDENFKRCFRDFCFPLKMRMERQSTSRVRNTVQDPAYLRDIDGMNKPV
# T7 sequence (P04757 26-499): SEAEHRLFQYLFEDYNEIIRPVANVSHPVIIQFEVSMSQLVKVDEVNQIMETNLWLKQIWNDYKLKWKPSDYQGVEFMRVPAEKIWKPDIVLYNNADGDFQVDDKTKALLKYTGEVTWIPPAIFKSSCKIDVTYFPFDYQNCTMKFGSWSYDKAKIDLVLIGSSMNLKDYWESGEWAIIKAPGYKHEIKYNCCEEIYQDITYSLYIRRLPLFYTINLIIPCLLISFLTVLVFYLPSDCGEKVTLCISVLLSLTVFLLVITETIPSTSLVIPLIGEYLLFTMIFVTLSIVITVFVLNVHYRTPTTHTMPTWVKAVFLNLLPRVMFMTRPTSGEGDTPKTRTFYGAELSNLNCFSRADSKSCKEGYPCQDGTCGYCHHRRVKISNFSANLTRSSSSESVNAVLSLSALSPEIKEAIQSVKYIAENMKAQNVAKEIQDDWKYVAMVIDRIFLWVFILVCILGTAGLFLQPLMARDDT
# T7 sequence (P12392 21-495): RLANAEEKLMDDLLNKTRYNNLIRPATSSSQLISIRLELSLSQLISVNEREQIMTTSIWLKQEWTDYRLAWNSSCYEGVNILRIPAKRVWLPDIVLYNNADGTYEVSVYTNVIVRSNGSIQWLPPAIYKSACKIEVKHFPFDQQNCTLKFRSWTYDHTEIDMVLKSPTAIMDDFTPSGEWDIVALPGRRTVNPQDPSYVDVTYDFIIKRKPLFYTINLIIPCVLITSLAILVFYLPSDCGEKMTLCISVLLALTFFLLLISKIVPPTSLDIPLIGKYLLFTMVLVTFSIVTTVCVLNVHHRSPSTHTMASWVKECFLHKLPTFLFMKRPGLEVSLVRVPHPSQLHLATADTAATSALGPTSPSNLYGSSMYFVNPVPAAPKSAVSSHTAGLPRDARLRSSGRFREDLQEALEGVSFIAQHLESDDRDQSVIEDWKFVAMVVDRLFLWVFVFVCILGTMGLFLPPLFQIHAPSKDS
smiles,measurement,setting,value
C#Cc1ccc2c(c1)C(c1ccccc1Cl)=N[C@H](C)c1c(C(=O)N(C)CC)ncn1-2 [Compound 29],inhibition at 10 µM,5-HT1B,-3.99%
same,"AMPA, PDSP raw data, mean",AMPA,-3.32%
same,inhibition at 10 µM,NTS1,-19.5%
same,Ki,[1],392 ± 78.8 nM
same,inhibition at 10 µM,[1]; [3],69.1 ± 29.1%
same,inhibition at 10 µM,[1]; [4],69.1%
same,inhibition at 10 µM,H3,-29.5%
same,inhibition at 10 µM,H1,-1.99%
same,inhibition at 10 µM,NET,-2.63%
same,inhibition at 10 µM,D4,1.36%
same,inhibition at 10 µM,[2]; [5],-10.9%
same,"NR2B, PDSP raw data, mean",NR2B,-14.08%
same,inhibition at 10 µM,Alpha3Beta4,0.02%
same,"Sigma 2, PDSP raw data, mean",Sigma 2,13.69%
same,inhibition at 10 µM,V1A,8.93%
"C#Cc1ccc2c(c1)C(c1ccccn1)=N[C@@H](C)c1c(C(=O)N(C)C)ncn1-2 [Compound 31, (S)-8-Ethynyl-N,N,4-trimethyl-6-(pyridin-2′-yl)-4H-benzo[f]imidazo[1,5-a][1,4]diazepine-3-carboxamide]",inhibition at 10 µM,5-HT1B,-0.27%
same,"AMPA, PDSP raw data, mean",AMPA,-10.56%
same,inhibition at 10 µM,NTS1,0.28%
same,inhibition at 10 µM,[1]; [3],-3.79 ± 4.99%
same,inhibition at 10 µM,[1]; [4],-3.79%
same,inhibition at 10 µM,H3,-5.55%
same,inhibition at 10 µM,H1,-7.38%
same,inhibition at 10 µM,NET,10.2%
same,inhibition at 10 µM,D4,-0.38%
same,inhibition at 10 µM,[2]; [5],4.44%
same,"NR2B, PDSP raw data, mean",NR2B,-10.18%
same,inhibition at 10 µM,Alpha3Beta4,-0.5%
same,"Sigma 2, PDSP raw data, mean",Sigma 2,-12.63%
same,inhibition at 10 µM,V1A,3.6%
"C#Cc1ccc2c(c1)C(c1ccccc1F)=N[C@H](C)c1c(C(=S)N(C)C)ncn1-2 [Compound 33, (R)-8-Ethynyl-6-(2′-fluorophenyl)-N,N,4-trimethyl-4H-benzo[f]imidazo[1,5-a][1,4]diazepine-3-carbothioamide]",inhibition at 10 µM,5-HT1B,11.8%
same,"AMPA, PDSP raw data, mean",AMPA,7.77%
same,inhibition at 10 µM,NTS1,-16.7%
same,Ki,[1],400 ± 82 nM
same,inhibition at 10 µM,[1]; [3],53.6 ± 7.24%
same,inhibition at 10 µM,[1]; [4],53.6%
same,inhibition at 10 µM,H3,5.94%
same,inhibition at 10 µM,H1,-10.4%
same,inhibition at 10 µM,NET,-6%
same,inhibition at 10 µM,D4,-4.45%
same,Ki,[2],1710 nM
same,inhibition at 10 µM,[2]; [5],22.3%
same,inhibition at 10 µM,[2]; [6],66.4 ± 3.3%
same,"NR2B, PDSP raw data, mean",NR2B,3.79%
same,inhibition at 10 µM,Alpha3Beta4,-0.77%
same,"Sigma 2, PDSP raw data, mean",Sigma 2,43.63%
same,inhibition at 10 µM,V1A,15.6%
"CCc1noc(-c2ncn3c2[C@@H](C)N=C(c2ccccc2F)c2cc(-c4ccccc4)ccc2-3)n1 [Compound 35, (R)-3-Ethyl-5-(6-(2′-fluorophenyl)-4-methyl-8-phenyl-4H-benzo[f]imidazo[1,5-a][1,4]diazepin-3-yl)-1,2,4-oxadiazole]",inhibition at 10 µM,5-HT1B,11.6%
same,"AMPA, PDSP raw data, mean",AMPA,-5.68%
same,inhibition at 10 µM,NTS1,-32.6%
same,inhibition at 10 µM,[1]; [3],38 ± 1.73%
same,inhibition at 10 µM,[1]; [4],38%
same,inhibition at 10 µM,H3,4.89%
same,inhibition at 10 µM,H1,10.5%
same,inhibition at 10 µM,NET,10.2%
same,inhibition at 10 µM,D4,6.05%
same,inhibition at 10 µM,[2]; [5],71.8%
same,Ki,"[2]; N = 2, read-out: Binding Affinity at PBR Ki (Secondary Screen)",1110 ± 24.5 nM
same,inhibition at 10 µM,[2]; [6],71.8 ± 10.5%
same,"NR2B, PDSP raw data, mean",NR2B,24.81%
same,inhibition at 10 µM,Alpha3Beta4,12%
same,"Sigma 2, PDSP raw data, mean",Sigma 2,85.36%
same,inhibition at 10 µM,V1A,3.9%
